Results taken from US20230414778A1, “COMBINATION OF ANTIBODY-DRUG CONJUGATE WITH ANTI-SIRPalpha ANTIBODY” (DAIICHI SANKYO COMPANY, LIMITED, priority 2020, published 2023).

Tests used:
[1] = test system: mouse colorectal cancer cell line CT26.WT; assay: ICD induction evaluation (in vitro): Calreticulin (CRT) on cell surface by flow cytometry; type: cell-based; settings: CT26.WT after 24 hours; compound (A) 4 μM, MTX 1 μM; adjusted MFI
Experimental: In cancer cells treated with different compounds, the expression level of Calreticulin (CRT), which serves as an index of Immunogenic cell death (ICD), was measured. Cells of mouse colorectal cancer cell line CT26.WT were seeded in a 6-well plate and cultured overnight. After the supernatant was removed, the cells were washed twice with PBS. In RPMI1640 culture solution containing 10% FBS (R10), compound (A), (4 μM) or Mitoxantrone (MTX) (1 μM) was added. As a control, DMSO was added in the same amount as that of compound (A) (R10-DMSO). After completion of drug treatment, CT26.WT cells were collected and suspended in PBS, and then, seeded in a 96-well (round bottom) plate at 1×10^6 cells/well. […] The expression level of CRT on the cancer cells was measured by flow cytometry (FACS CantoII: manufactured by Becton, Dickinson and Company). Data were analyzed by FlowJo (manufactured by TreeStar Inc). Note that, LIVE/DEAD Fixable Violet-positive cells were determined as dead cells and excluded from the analysis. The mean fluorescence intensity (MFI) of CRT was calculated. The value, which was obtained by subtracting the MFI of the cells treated with Isotype control from the MFI of stained cells, was determined as the adjusted MFI. […] The results satisfying P<0.05 (two-sided test) were determined as being significant (***: P<0.001, **: P<0.01).

[2] = test system: mouse colorectal cancer cell line CT26.WT; assay: ICD induction evaluation (in vitro): ATP in culture supernatant; type: cell-based; settings: CT26.WT culture supernatant after 24 hours; MTX 0.4-6 μM vs control (0 μM); compound (A) 1-16 μM vs R10 or R10-DMSO
Experimental: In cancer cells treated with different compounds, the ATP level, and the expression level of HMGB1, which serve as an index of Immunogenic cell death (ICD), were measured. Cells of mouse colorectal cancer cell line CT26.WT were seeded in a 6-well plate and cultured overnight. After the supernatant was removed, the cells were washed twice with PBS. Compound (A) was dissolved in RPMI1640 culture solution containing 10% FBS (R10) to prepare solutions having a final concentration of 0, 1, 4 and 16 μM. As a positive control, Mitoxantrone (MTX) was dissolved in DMSO and added at a final concentration of 0.4, 1.5 and 6 μM. To the control (0 μM) herein, DMSO was added in the same amount as that of compound (A) (R10-DMSO). Twenty four hours later, the culture supernatant was collected, and the levels of ATP and HMGB1 were measured. The level of ATP was measured by adding the culture supernatant in a 96-well white plate, adding the same amount of Back titer-Glo (manufactured by Promega Corporation) and determining the amount of luminescence by a plate reader. The level of HMGB1 was detected by a HMGB1 ELISA-kit (manufactured by Shino-Test Corporation) in accordance with the Sandwich ELISA method. […] The absorbance at 405 nm was measured by a plate reader. […] The results satisfying P<0.05 (two-sided test) were determined as being significant.

SMILES | CRT expression on cell surface relative to control group [1] | release of ATP, maximum, relative to control [2]
CC[C@@]1(O)C(=O)OCc2c1cc1n(c2=O)Cc2c-1nc1cc(F)c(C)c3c1c2[C@@H](NC(=O)CO)CC3 [compound (A)] | about 12.7 times | about 4.6 times
O=C1c2c(O)ccc(O)c2C(=O)c2c(NCCNCCO)ccc(NCCNCCO)c21 [MTX, Mitoxantrone, reference compound] | about 2.6 times | about 4 times
